Test results: US7893256B2, “Azabicycloalkane compounds” (Theravance, Inc., priority 2003, dated 2011)
pKi: −log10 of the molar value.

Target: T1, human β2 adrenergic receptor (Homo sapiens, UniProt P07550)
T1 construct: expressed in transfected cells; membranes
Assay: Radioligand binding assay for human β2 adrenergic receptor (Assay Test Procedure A)
Procedure: Chinese hamster ovarian (CHO) cell lines stably expressing cloned human β1, β2 or β3 adrenergic receptors, respectively, were grown to near confluency in Hams F-12 media with 10% FBS in the presence of 500 μg/mL Geneticin. The cell monolayer was lifted with 2 mM EDTA in PBS. Cells were pelleted by centrifugation at 1,000 rpm, and cell pellets were either stored frozen at −80° C. or membranes were prepared immediately for use. For preparation of β1 and β2 receptor expressing membranes, cell pellets were re-suspended in lysis buffer (10 mM HEPES/HCl, 10 mM EDTA, pH 7.4 at 4° C.) and homogenized using a tight-fitting Dounce glass homogenizer (30 strokes) on ice. […] The protein concentration of the membrane suspension was determined by the methods described in Lowry et al., 1951, Journal of Biological Chemistry, 193, 265; and Bradford, Analytical Biochemistry, 1976, 72, 248-54. […]
Binding assays were performed in 96-well microtiter plates in a total assay volume of 100 μL with 10-15 μg of membrane protein containing the human β1, β2 or β3 adrenergic receptors in assay buffer (75 mM Tris/HCl pH 7.4 at 25° C., 12.5 mM MgCl2, 1 mM EDTA, 0.2% BSA). […] Non-specific binding was determined in the presence of 10 μM propranolol. […] Filter plates were washed three times with filtration buffer (75 mM Tris/HCl pH 7.4 at 4° C., 12.5 mM MgCl2, 1 mM EDTA) to remove unbound radioactivity. […]

T1 sequence (P07550 whole entry): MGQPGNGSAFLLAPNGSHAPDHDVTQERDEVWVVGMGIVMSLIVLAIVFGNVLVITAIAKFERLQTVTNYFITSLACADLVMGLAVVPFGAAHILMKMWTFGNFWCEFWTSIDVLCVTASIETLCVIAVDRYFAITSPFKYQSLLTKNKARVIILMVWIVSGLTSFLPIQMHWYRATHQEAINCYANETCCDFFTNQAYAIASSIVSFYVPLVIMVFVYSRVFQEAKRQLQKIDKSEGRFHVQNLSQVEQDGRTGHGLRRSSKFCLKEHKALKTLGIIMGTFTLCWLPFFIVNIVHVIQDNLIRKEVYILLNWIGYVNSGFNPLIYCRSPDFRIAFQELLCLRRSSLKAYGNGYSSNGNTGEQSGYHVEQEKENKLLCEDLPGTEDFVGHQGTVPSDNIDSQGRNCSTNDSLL

Q: With C[N+]1(CCCCCCCCCNC[C@H](O)c2ccc(O)c3[nH]c(=O)ccc23)C2CC(OC(=O)C(O)(c3cccs3)c3cccs3)CC1C1OC12.C[N+]1(CCCCCCCCCNC[C@H](O)c2ccc(O)c3[nH]c(=O)ccc23)C2CC(OC(=O)C(O)(c3cccs3)c3cccs3)CC1C1OC12.O=C([O-])C(F)(F)F.O=C([O-])C(F)(F)F (stereo partly drawn) [Example 1, 7-(2-Hydroxy-2,2-dithiophen-2-ylacetoxy)-9-{9-[(R)-2-hydroxy-2-(8-hydroxy-2-oxo-1,2-dihydroquinolin-5-yl)ethylamino]nonyl}-9-methyl-3-oxa-9-azonia-tricyclo[3.3.1.0^2,4]nonane Ditrifluoroacetate] as the molecule, how does the pKi (radioligand displacement, CHO cell membranes, [3H]-dihydroalprenolol) read?
A: The pKi was over 7.30.

Q: And the “ratio of Ki(β1)/Ki(β2)” value (receptor subtype selectivity, binding, β2 over β1)?
A: Its value is “greater than 5”.
